One data set is described as follows: in vitro. The note with it: human.
Another data set relates to HCV genotype 1b replicon. The experiment in a line: HCV replicon assay (Zluc luciferase). The class given is cell-based. To be noted: Zluc cells, 72 hours, read-out: HCV Replicon EC50. As for the experimental part: Huh-7-derived cell line (Zluc) that harbors an HCV genotype 1b replicon and a luciferase reporter gene was grown in Dulbecco's Modified Eagle Medium (DMEM) supplemented with 10% fetal bovine serum, 2 mM GlutaMAX, 1% MEM nonessential amino acids, 100 IU/mL penicillin, 100 μg/mL streptomycin, and 0.5 mg/mL Geneticin® (G418). For dose response testing the cells were seeded in 96-well plates at 7.5×10^3 cells per well in a volume of 50 μL, and incubated at 37° C./5% CO2. Drug solutions were made up freshly in Huh-7 media as 2× stocks. Ten additional 5-fold dilutions were prepared from these stocks in DMEM without G418. At least three hours after Zluc cells were seeded, drug treatment was initiated by adding 50 μL of drug dilutions to the plates in duplicate. Final concentrations of drug ranged from 100 μM to […]. Cells were then incubated at 37° C./5% CO2. Alternatively, compounds were tested at two concentrations (1 μM and 10 μM). […] For this, media was removed from the plates via gentle tapping. Fifty microliters of ONE-glo luciferase assay reagent was added to each well. The plates were shaken gently for 3 min at room temperature and luminescence was measured on a Victor^3 V 1420 multilabel counter (Perkin Elmer) with a 1 second read time using a 700 nm cut-off filter. The EC50 values were calculated from dose response curves from the resulting best-fit equations determined by Microsoft Excel and XLfit 4.1 software. When screening at two fixed concentrations, the results were expressed as % inhibition at 1 μM and 10 μM.
A general note: In antiviral work, replicon cells carry a viral genome segment that copies itself.

Data set [1] in a line: Liver triphosphate pharmacokinetics after single oral dose in CD-1 mice.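 For Ms Liver TP AUC: pmol·h/g liver normalized to a 1 µmol/kg dose.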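 For Ms Liver TP Cmax: pmol/g liver normalized to a 1 µmol/kg dose.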 In kind it is in vivo. The arrangement: key: + ≤ 15; 15 < ++ ≤ 50; 50 < +++ ≤ 100; 100 < ++++; BLQ = below limit of quantitation. To be noted: single oral dose 10 mg/kg in PEG 200. How it is done: Internal standard solution was added to the homogenate followed by neutralization with 20% ammonium hydroxide solution and addition of 500 μL 1% formic acid. The tissue samples were extracted by weak anion exchange solid phase extraction (SPE). Post extraction, the eluates were evaporated under nitrogen, followed by reconstitution before injection onto the LC-MS/MS system.

The nature of data set [2]: Plasma nucleoside pharmacokinetics after single oral dose in CD-1 mice.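 For Ms Plasma nucleoside AUC: pmol·h/mL plasma normalized to a 1 µmol/kg dose.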 The class given is in vivo. To be noted: single oral dose 10 mg/kg in PEG 200. How it is done: Plasma samples were analyzed for nucleoside by LC-MS/MS. The internal standard (IS) was either 2′-MeG-D3 or tiapride. For protein precipitation and extraction, each plasma sample (50 μL) was treated with 500 μL of 0.2% formic acid in acetonitrile and 20 μL of the internal standard working solution. After vortexing and centrifugation, 500 μL of the sample extracts were transferred to a new plate, dried under N2 at ˜28° C. and reconstituted with 75 μL of 0.2% FA in water. The extracts were chromatographed on an Aquasil C18 column using a gradient system of 0.2% formic acid in water and acetonitrile. The analytes were detected and quantified by tandem mass spectrometry in positive ion mode on an MDS Sciex API5000 equipped with a Turbo Ionspray® interface. The calibration range was 0.500 (LLOQ) to 200 ng/mL in mouse plasma.

Like-named read-outs stand apart in the source and are kept apart here.

In general, EC50 refers to the midpoint of the concentration-response curve.

For the compound `CCOc1nc(N)nc2c1ncn2[C@@H]1O[C@H](COP(=O)(N[C@@H](C)C(=O)OC(C)C)Oc2ccccc2)[C@@H](O)[C@@]1(C)Cl` (single isomer, unassigned) [Compound 17ii Diastereomer 1], the CC50 in “in vitro” is greater than 50 µM. In addition, the EC50 in the data set on HCV genotype 1b replicon (Hepatitis C virus, 72 h) was 1 to 10 µM. For the same compound, in data set [1], the “Ms Liver TP AUC” value is “BLQ” and the “Ms Liver TP Cmax” value is “BLQ”.

`CC(C)OP1(=O)OC[C@H]2O[C@@H](n3ccc(=O)[nH]c3=O)[C@](C)(Cl)[C@@H]2O1` (single isomer, unassigned) [Compound 37 Diastereomer 1]: in data set [2], the “Ms Plasma nucleoside AUC” value is listed as “+++ (500 < +++ ≤ 1500)” and the “Ms Plasma nucleoside Cmax” value is reported as “+++ (50 < +++ ≤ 100)”. The CC50 in “in vitro” is greater than 50 µM. The EC50 in the data set with HCV genotype 1b replicon (Hepatitis C virus, 72 h) was 1 to 10 µM. Also, in data set [1], the “Ms Liver TP AUC” value was “++++ (1500 < ++++)” and the “Ms Liver TP Cmax” value is reported as “++++ (100 < ++++)”.

For `CC(C)(C)C(=O)SCCOP1(=O)OC[C@H]2O[C@@H](n3ccc(N)nc3=O)[C@](C)(Cl)[C@@H]2O1` (single isomer, unassigned) [Compound 61 Diastereomer 1], in data set [2], the “Ms Plasma nucleoside AUC” value is reported as “+ (+ ≤ 150)” and the “Ms Plasma nucleoside Cmax” value was “++++ (100 < ++++)”. Also, the CC50 in “in vitro” is greater than 50 µM. For the same compound, the EC50 in the data set on HCV genotype 1b replicon (Hepatitis C virus, 72 h) is less than 0.25 µM. For the same compound, in data set [1], the “Ms Liver TP AUC” value is recorded as “+++ (500 < +++ ≤ 1500)” and the “Ms Liver TP Cmax” value is on record as “+++ (50 < +++ ≤ 100)”.

In the case of `CCOC(=O)NCC(C)(C)C(=O)SCCOP1(=O)OC[C@H]2O[C@@H](n3ccc(=O)[nH]c3=O)[C@](C)(Cl)[C@@H]2O1` (single isomer, unassigned) [Compound 70 Single Diastereomer], in data set [2], the “Ms Plasma nucleoside AUC” value is given as “++++ (1500 < ++++)” and the “Ms Plasma nucleoside Cmax” value is on record as “++++ (100 < ++++)”. The compound further registered a CC50 in the data set “in vitro” greater than 50 µM. Further, the EC50 in the data set with HCV genotype 1b replicon (Hepatitis C virus, 72 h) was less than 0.25 µM. In addition, in data set [1], the “Ms Liver TP AUC” value is on record as “++++ (1500 < ++++)” and the “Ms Liver TP Cmax” value is given as “++++ (100 < ++++)”.

Turning to `CC(C)(C)C(=O)SCCOP1(=O)OC[C@H]2O[C@@H](n3ccc(=O)[nH]c3=O)[C@](C)(Cl)[C@@H]2O1` (single isomer, unassigned) [Compound 201 Single Diastereomer], in data set [2], the “Ms Plasma nucleoside AUC” value is “+++ (500 < +++ ≤ 1500)” and the “Ms Plasma nucleoside Cmax” value was “+++ (50 < +++ ≤ 100)”. Also, the CC50 in the data set “in vitro” was greater than 50 µM. For the same compound, in the data set with HCV genotype 1b replicon (Hepatitis C virus, 72 h), the concentration for a half-maximal effect (EC50) is less than 0.25 µM. Besides, in data set [1], the “Ms Liver TP AUC” value is reported as “++++ (1500 < ++++)” and the “Ms Liver TP Cmax” value is listed as “++++ (100 < ++++)”.

In the case of `CCCCOC(=O)[C@@H](C)NP(=O)(OC[C@H]1O[C@@H](n2ccc(=O)[nH]c2=O)[C@](C)(Cl)[C@@H]1O)Oc1ccccc1` (single isomer, unassigned) [Compound 202i Diastereomer 1], in data set [2], the “Ms Plasma nucleoside AUC” value is “++++ (1500 < ++++)” and the “Ms Plasma nucleoside Cmax” value is on record as “++++ (100 < ++++)”. The compound further returned a CC50 in the data set “in vitro” greater than 50 µM. Besides, the half-maximal effective concentration (EC50) in the data set with HCV genotype 1b replicon lay within 1 to 10 µM. Besides, in data set [1], the “Ms Liver TP AUC” value is listed as “++++ (1500 < ++++)” and the “Ms Liver TP Cmax” value is on record as “++++ (100 < ++++)”.

For the compound `C[C@@H](NP(=O)(OC[C@H]1O[C@@H](n2ccc(=O)[nH]c2=O)[C@](C)(Cl)[C@@H]1O)Oc1ccccc1)C(=O)OCc1ccccc1` (single isomer, unassigned) [Compound 205i Diastereomer 1], in data set [2], the “Ms Plasma nucleoside AUC” value is “+++ (500 < +++ ≤ 1500)” and the “Ms Plasma nucleoside Cmax” value is reported as “+++ (50 < +++ ≤ 100)”. The CC50 in “in vitro” is greater than 50 µM. For the same compound, in the data set on HCV genotype 1b replicon, the half-maximal effective concentration (EC50) lay in the range of 1 to 10 µM. Also, in data set [1], the “Ms Liver TP AUC” value is “++++ (1500 < ++++)” and the “Ms Liver TP Cmax” value is on record as “++++ (100 < ++++)”.

For `CC(C)OC(=O)[C@H](C)NP(=O)(OC[C@H]1O[C@@H](n2ccc3c(N)ncnc32)[C@](C)(Cl)[C@@H]1O)Oc1ccccc1` (single isomer, unassigned) [Compound 208ii Diastereomer 1], the CC50 in “in vitro” was greater than 50 µM. Further, the EC50 in the data set on HCV genotype 1b replicon (Hepatitis C virus, 72 h) is greater than 10 µM. Moreover, in data set [1], the “Ms Liver TP AUC” value is recorded as “BLQ” and the “Ms Liver TP Cmax” value is recorded as “BLQ”.

Take `C[C@@]1(Cl)[C@H](O)[C@@H](CO)O[C@H]1n1ccc(=O)[nH]c1=O` [Compound 301, 2′-C-Chloro-2′-C-methyluridine]: in data set [2], the “Ms Plasma nucleoside AUC” value is “+++ (500 < +++ ≤ 1500)” and the “Ms Plasma nucleoside Cmax” value is “+++ (50 < +++ ≤ 100)”. The compound further registered a CC50 in “in vitro” greater than 50 µM. Besides, the EC50 in the data set on HCV genotype 1b replicon (Hepatitis C virus, 72 h) was greater than 10 µM. In data set [1], the “Ms Liver TP AUC” value was “BLQ” and the “Ms Liver TP Cmax” value is listed as “BLQ”.

Regarding `CCOc1nc(N)nc2c1ncn2[C@@H]1O[C@H](CO)[C@@H](O)[C@@]1(C)Cl` [Compound 304], the CC50 in “in vitro” is greater than 50 µM. For the same compound, in the data set on HCV genotype 1b replicon (Hepatitis C virus, 72 h), the EC50 was greater than 10 µM.

`C[C@@]1(Cl)[C@H](O)[C@@H](CO)O[C@H]1c1ccc2c(N)ncnn12` [Compound 305] had a CC50 in the data set “in vitro” greater than 50 µM. The EC50 in the data set on HCV genotype 1b replicon (Hepatitis C virus, 72 h) is greater than 10 µM.

Consider `C[C@@]1(Cl)[C@H](O)[C@@H](CO)O[C@H]1n1ccc(N)nc1=O` [Compound 306], for which the CC50 in “in vitro” is greater than 50 µM. The EC50 in the data set on HCV genotype 1b replicon (Hepatitis C virus, 72 h) was greater than 10 µM.
